Results published in US20210261539A1, “COMPOUND HAVING BET INHIBITORY ACTIVITY AND PREPARATION METHOD AND USE THEREFOR” (Shanghai Haihe Pharmaceutical Co., Ltd., priority 2018, published 2021).

Each compound was assayed against T1, BRD4 BD1 (Homo sapiens, UniProt O60885) (assay: HTRF in vitro enzyme activity assay, inhibition of BRD4 BD1 binding to acetylated H4 peptide). Conditions: IC50 values of the compounds against BRD4 BD1 binding; class symbols A/B/C.
T1 construct: Protein BRD4 BD1 used in the assay was purchased from Active Motif (cat. 31380); purchased Active Motif 31380
Description: Effect Examples: In Vitro Enzyme Activity Assay
Half inhibitory activity (IC50) of the compounds of the invention against the bromodomain protein BRD4 BD1 was determined in the present Examples.
The compounds of the invention were tested for inhibitory activity against BRD4 BD1 with Homogeneous Time-Resolved Fluorescence (HTRF).
2. Reagents, Consumable Materials and Instruments:
Protein BRD4 BD1 used in the assay was purchased from Active Motif (cat. 31380); streptavidin XL-665 (#610SAXLA) and EPIgeneous Binding Domain Kit A (#62BDAPEG) were both purchased from Cisbio Bioassays; [Lys(5,8,12,16)Ac] H4(1-21)-biotin (#64989), [Lys(5,8,12,16)Ac]H4(1-25) were available from Anaspec; OTX015 and ABBV-075 were purchased from Selleckchem Co. The 384-well ProxiPlate (#6008280) was purchased from Perkinelmer Co. The Laboratory microplate reader (Envision 2104) was available from PerkinElmer Co. The water used in the assay was Millipore-Q pure water.
3. Formulation of the Compound
10 mM DMSO stock solution of the test compound was diluted to 1 mM in DMSO, and then diluted 10-fold in Binding Domain dilution buffer (purchased from Cisbio Bioassays) for use (DMSO concentration in the final system was 0.1%), including 5 concentrations in 1:5 gradient.
4. Assay Protocol: 1 Batch, 2 Repeats
1) 5 μL of test compound was transferred to 45 μL Binding Domain dilution buffer.
2) 2 μL of 1× compound (4 μL Binding Domain dilution buffer: positive control; 6 μL enzyme buffer (purchased from Cisbio Bioassays): negative control) was transferred to a reaction plate.
3) 4 μL of 5×BRD 4(1) was added to the reaction plate (30 nM in the final system).
4) 4 μL of 5×[Lys(5,8,12,16)Ac] H4(1-21)-biotin was added to the reaction plate, and the plate was covered with a film and incubated at 37° C. for 30 min.
5) A detection mixture of SA-XL665 (2×) and anti-H3K9me0-Eu(K) (2×) was prepared in detection buffer (purchased from Cisbio Bioassays).
6) 10 μL of detection mixture (2×) was added to each well, incubated at RT for 3 h. The mp value was read by microplate reader Envision with the following parameters: […]

IC50	SMILES
≤ 0.01 µM	C[C@@H]1C(=O)N(C)c2cnc(N3C(=O)c4c(cccc4S(C)(=O)=O)C3c3cccnc3)nc2N1C (stereo partly drawn) [Example A103-P1, (7R)-5,7,8-trimethyl-2-(4-(methylsulfonyl)-3-oxo-1-(pyridin-3-yl)isoindolin-2-yl)-7,8-dihydropteridin-6(5H)-one]
≤ 0.01 µM	CC1C(=O)N(C)c2cnc(-n3c(=O)c4ccccc4n3-c3ccc(Cl)cc3)cc2N1C1CC1 (stereo not shown) [Example A29-P4, 7-(1-(4-chlorophenyl)-3-oxo-1H-indazol-2(3H)-yl)-1-cyclopropyl-2,4-dimethyl-1,2-dihydropyrido [3 4-b]pyrazin-3(4H)-one]
0.01 to 0.1 µM	C[C@H]1Oc2nc(N3C(=O)c4c(cccc4S(C)(=O)=O)C3c3cccnc3)ccc2N(C)C1=O (single isomer, unassigned) [Example A128-P1]
≤ 0.01 µM	COC(=O)c1cccc2c1C(=O)N(c1ccc3c(n1)N(C1CC1)C(C)C(=O)N3C)C2c1cccnc1 (single isomer, unassigned) [Example A84-P4, Methyl 2-(4-cyclopropyl-1,3-dimethyl-2-oxo-1,2,3,4-tetrahydropyrido[2,3-b]pyrazin-6-yl)-3-oxo-1-(pyridin-3-yl)isoindoline-4-carboxylate]
0.1 to 1 µM	Cc1ccc(C2c3ccccc3C(=O)N2c2cc3c(cn2)N(C)C(=O)[C@@H](C)O3)cn1 (single isomer, unassigned) [Example A113-P1]
≤ 0.01 µM	CC1C(=O)N(C)c2ccc(N3C(=O)c4cccc(F)c4C3c3cccnc3)nc2N1C1CC1 (single isomer, unassigned) [Example A75-P3, 4-cyclopropyl-6-(7-fluoro-3-oxo-1-(pyridin-3-yl)isoindolin-2-yl)-1,3-dimethyl-3,4-dihydropyrido[2,3-b]pyrazin-2(1H)-one]
≤ 0.01 µM	CC1C(=O)N(C)c2c(F)cc(N3C(=O)CCC3c3ccc(Cl)cc3)cc2N1C1CC1 (single isomer, unassigned) [Example A15-P1-1, 6-(2-(4-chlorophenyl)-5-oxopyrrolidin-1-yl)-4-cyclopropyl-8-fluoro-1,3-dimethyl-3,4-dihydroquinoxalin-2(1H)-one]
≤ 0.01 µM	CC1C(=O)N(C)c2ccc(N3C(=O)c4c(C(=O)NC5CC5)cccc4C3c3ccc(F)cc3)nc2N1CC(F)(F)F (stereo not shown) [Example A85-P4, N-cyclopropyl-2-(1,3-dimethyl-2-oxo-4-(2,2,2-trifluoroethyl)-1,2,3,4-tetrahydropyrido[2,3-b]pyrazin-6-fluorophenyl)-3-oxoisoindoline-4-carboxamide]
0.1 to 1 µM	C[C@H]1Oc2cc(N3C(=O)c4ccccc4C3c3cccnc3)ncc2N(C)C1=O (single isomer, unassigned) [Example A123-P2]
0.1 to 1 µM	C[C@H]1Oc2cc(N3C(=O)c4cc(F)ccc4C3c3cccnc3)ncc2N(C)C1=O (stereo partly drawn) [Example A117, (2R)-7-(5-fluoro-3-oxo-1-(pyridin-3-yl)isoindolin-2-yl)-2,4-dimethyl-2H-pyrido[4,3-b][1,4]oxazin-3(4H)-one]
≤ 0.01 µM	CC1C(=O)N(C)c2ccc(N3C(=O)c4c(cccc4[S+](C)[O-])C3c3cccnc3)nc2N1C1CC1 (single isomer, unassigned) [Example A60-P1]
≤ 0.01 µM	CC1C(=O)N(CC(F)(F)F)c2ccc(N3C(=O)c4ccccc4C3c3cccnc3)nc2N1C1CC1 (stereo not shown) [Example A46-P4, 4-cyclopropyl-1-(2,2,2-trifluoroethyl)-3-methyl-6-(1-oxo-3-(pyridin-3-yl)isoindolin-2-yl)-3,4-dihydropyrido [2,3-b]pyrazin-2(1H)-one]
≤ 0.01 µM	CC1C(=O)N(C)c2ccc(N3C(=O)c4cc(C(=O)O)ccc4C3c3ccc(F)cc3)nc2N1C1CC1 (stereo not shown) [A77-P1/P4, 2-(4-cyclopropyl-1,3-dimethyl-2-oxo-1,2,3,4-tetrahydropyrido[2,3-b]pyrazin-6-yl)-1-(4-fluorophenyl)-3-oxoisoindoline-5-carboxylic acid]
≤ 0.01 µM	CC1C(=O)N(C)c2cc(F)c(N3C(=O)c4ccccc4C3c3cccnc3)nc2N1C1CC1 (stereo not shown) [Example A44, 4-cyclopropyl-7-fluoro-1,3-dimethyl-6-(1-oxo-3-(pyridin-3-yl)isoindolin-2-yl)-3,4-dihydropyrido [2,3-b]pyrazin-2(1H)-one]
≤ 0.01 µM	CC1C(=O)N(C)c2ccc(N3C(=O)CCC3c3ccc(F)cc3F)nc2N1C1CC1 (single isomer, unassigned) [Example A7-P3, 4-cyclopropyl-6-(2-(2,4-difluorophenyl)-5-oxopyrrolidin-1-yl)-1,3-dimethyl-3,4-dihydropyrido[2,3-b]pyrazin-2(1H)-one]

The remaining lines, values behind:

SMILES	IC50
CC1C(=O)N(C)c2ccc(N3C(=O)c4ccccc4C3c3ccccc3)nc2N1CC(F)(F)F (stereo not shown) [Example A56-P1, 1,3-dimethyl-6-(1-oxo-3-phenylisoindolin-2-yl)-4-(2,2,2-trifluoroethyl)-3,4-dihydropyrido [2,3-b]pyrazin-2(1H)-one]	≤ 0.01 µM
CC1C(=O)N(C)c2ccc(N3C(=O)c4c(C(=O)O)cccc4C3c3ccc(F)cc3)nc2N1C1CC1 (single isomer, unassigned) [Example A81-P4]	≤ 0.01 µM
C[C@H]1Oc2nc(N3C(=O)c4ccccc4C3c3ccc(F)nc3)c(F)cc2N(C)C1=O (single isomer, unassigned) [Example A126-P1]	0.01 to 0.1 µM
CC1Oc2nc(N3C(=O)c4ccccc4C3c3ccc(F)cc3)ccc2N(C)C1=O (stereo not shown) [Example A39-P1, 6-(1-(4-fluorophenyl)-3-oxoisoindolin-2-yl)-1,3-dimethyl-1H-pyrido[2,3-b][1,4]oxazin-2(3H)-one]	≤ 0.01 µM
CNC(=O)c1cccc2c1C(=O)N(c1ccc3c(n1)N(C)C(C)C(=O)N3C)C2c1ccccc1 (single isomer, unassigned) [Example A88-P4, N-methyl-3-oxo-1-phenyl-2-(1,3,4-trimethyl-2-oxo-1,2,3,4-tetrahydropyrido[2,3-b]pyrazin-6-yl)isoindoline-4-carboxamide]	≤ 0.01 µM
CC1C(=O)N(C)c2ccc(N3C(=O)c4ccccc4C3c3cccnc3)nc2N1CC(F)(F)F (stereo not shown) [Example A59-P2, 1,3-dimethyl-6-(1-oxo-3-(pyridin-3-yl)isoindolin-2-yl)-4-(2,2,2-trifluoroethyl)-3,4-dihydropyrido[2,3-b]pyrazin-2(1H)-one]	≤ 0.01 µM
C[C@@H]1C(=O)N(C)c2cnc(N3C(=O)c4ccccc4C3c3ccc(F)nc3)nc2N1C (single isomer, unassigned) [Example A91-P2]	≤ 0.01 µM
Cc1ccc(C2CCC(=O)N2c2ccc3c(n2)N(C2CC2)C(C)C(=O)N3C)cc1 (single isomer, unassigned) [Example A8-P3, 4-cyclopropyl-6-(2-(4-methylphenyl)-5-oxopyrrolidin-1-yl)-1,3-dimethyl-3,4-dihydropyrido[2,3-b]pyrazin-2(1H)-one]	≤ 0.01 µM
CC1C(=O)N(C)c2ccc(N3C(=O)CCC3c3ccccc3)nc2N1C1CC1 (single isomer, unassigned) [Example A1-P2-2, 4-cyclopropyl-1,3-dimethyl-6-(2-oxo-5-phenyl-pyrrolidin-1-yl)-3,4-dihydropyrido[2,3-b]pyrazin-2(1H)-one]	≤ 0.01 µM
CC1C(=O)N(C)c2ccc(N3C(=O)CCC3c3ccccn3)nc2N1C1CC1 (single isomer, unassigned) [Example A6-P1, 4-cyclopropyl-1,3-dimethyl-6-(2-oxo-5-(pyridin-2-yl)pyrrolidin-1-yl)-3,4-dihydropyrido[2,3-b]pyrazin-2(1H)-one]	≤ 0.01 µM
CC1C(=O)N(C)c2ccc(N3C(=O)c4ccccc4C3(O)c3ccc(F)cc3)nc2N1C1CC1 (stereo not shown) [Compound A25, 4-cyclopropyl-6-(1-(4-fluorophenyl)-1-hydroxy-3-oxoisoindolin-2-yl)-1,3-dimethyl-3,4-dihydropyrido[2,3-b]pyrazin-2(1H)-one]	0.01 to 0.1 µM
Cc1ccc(-n2c3ccccc3c(=O)n2-c2ccc3c(n2)N(C2CC2)C(C)C(=O)N3C)cn1 (single isomer, unassigned) [Example A50-P3, 6-(1-(6-methyl-pyridin-3-yl)-3-oxo-1,3-dihydro-2H-indazol-2-yl)-4-cyclopropyl-1-methyl-3-methyl-3,4-dihydropyridine [2,3-b]pyrazin-2(1H)-one]	≤ 0.01 µM
C[C@@H]1C(=O)N(C)c2cnc(N3C(=O)c4c(cccc4S(C)(=O)=O)C3(O)c3cccnc3)nc2N1C (stereo partly drawn) [Example A104-P3, (7R)-2-(1-hydroxy-4-(methylsulfonyl)-3-oxo-1-(pyridin-3-yl)isoindolin-2-yl)-5,7,8-trimethyl-7,8-dihydropteridin-6(5H)-one]	≤ 0.01 µM
